Results as given in patent publication US7626031B2, “Substituted 3-(diarylmethylene)indolin-2-ones and methods of their use” (Symphony Evolution, Inc., priority 2002, dated 2009).
Blank lines part the entries; values can stand above or below the compound they belong to.

Columns and labels:
IRK = IRK (Homo sapiens, UniProt P06213); assay: Kinase assay, IRK; format: biochemical
Protocol: (§1) Kinase activity and compound inhibition are investigated using one or more assay formats. The ATP concentrations for each assay are selected to be close to the Michaelis-Menten constant (KM) for each individual kinase. Dose-response experiments are performed at 10 different inhibitor concentrations in a 384-well plate format. […] Exemplary kinase assays are described below. KDR Assay

EGFR = EGFR (Homo sapiens, UniProt P00533); assay: Kinase assay, EGFR (33P-ATP incorporation or luciferase-coupled ATP consumption); format: biochemical
EGFR, sequence (P00533 25-1210, species assumed): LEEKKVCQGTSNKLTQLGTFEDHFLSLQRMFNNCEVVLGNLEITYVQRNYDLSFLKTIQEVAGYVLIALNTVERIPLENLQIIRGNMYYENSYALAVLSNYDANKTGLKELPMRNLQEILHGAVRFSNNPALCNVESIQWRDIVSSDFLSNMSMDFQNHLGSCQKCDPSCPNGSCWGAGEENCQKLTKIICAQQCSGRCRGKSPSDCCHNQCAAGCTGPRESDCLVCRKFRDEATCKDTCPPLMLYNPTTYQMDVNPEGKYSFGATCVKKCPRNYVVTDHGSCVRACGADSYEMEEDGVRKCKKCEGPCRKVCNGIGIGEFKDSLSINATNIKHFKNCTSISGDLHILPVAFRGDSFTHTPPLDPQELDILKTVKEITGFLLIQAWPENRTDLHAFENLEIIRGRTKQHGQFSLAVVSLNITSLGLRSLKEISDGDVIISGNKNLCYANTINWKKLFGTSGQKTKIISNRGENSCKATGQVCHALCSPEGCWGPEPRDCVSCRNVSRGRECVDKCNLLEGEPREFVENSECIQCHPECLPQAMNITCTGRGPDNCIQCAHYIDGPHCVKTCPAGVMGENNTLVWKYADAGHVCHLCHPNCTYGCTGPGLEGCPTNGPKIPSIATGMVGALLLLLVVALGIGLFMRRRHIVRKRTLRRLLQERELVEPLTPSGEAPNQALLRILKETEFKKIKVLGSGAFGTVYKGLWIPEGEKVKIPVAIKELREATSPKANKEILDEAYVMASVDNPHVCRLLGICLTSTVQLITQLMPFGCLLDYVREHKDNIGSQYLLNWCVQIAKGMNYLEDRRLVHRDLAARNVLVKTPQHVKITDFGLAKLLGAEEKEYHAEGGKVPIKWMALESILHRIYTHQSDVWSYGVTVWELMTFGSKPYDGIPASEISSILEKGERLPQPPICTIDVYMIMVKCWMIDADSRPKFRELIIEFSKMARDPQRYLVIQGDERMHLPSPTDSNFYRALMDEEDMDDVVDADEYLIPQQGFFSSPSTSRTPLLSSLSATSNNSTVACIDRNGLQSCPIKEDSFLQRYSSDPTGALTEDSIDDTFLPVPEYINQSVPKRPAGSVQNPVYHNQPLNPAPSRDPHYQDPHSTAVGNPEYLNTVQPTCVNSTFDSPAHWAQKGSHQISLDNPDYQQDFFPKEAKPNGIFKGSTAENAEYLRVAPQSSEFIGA
Protocol: (§2) Kinase assays were performed by measurement of incorporation of γ-^33P ATP into immobilized myelin basic protein (MBP). […] Plates were washed 3× with 100 μl TBS. […] Compound dilutions were performed in DMSO and added to assay wells to a final DMSO concentration of 1%. Each data point was measured in duplicate, and at least two duplicate assays were performed for each individual compound determination. Enzyme was added to final concentrations of 10 nM or 20 nM, for example. A mixture of unlabeled ATP and γ-^33P ATP was added to start the reaction (2×10^6 cpm of γ-^33P ATP per well (3000 Ci/mmole) and either 10 μM or 30 μM unlabeled ATP, typically. The reactions were carried out for 1 hour at room temperature with shaking. Plates were washed 7× with TBS, followed by the addition of 50 μl/well scintillation fluid (Wallac). Plates were read using a Wallac Trilux counter. This is only one format of such assays, various other formats are possible, as known to one of ordinary skill in the art.
(§3) Tyrosine kinase activity is determined by 1) measurement of kinase-dependent ATP consumption by in the presence of a generic substrate such as, polyglutamic acid, tyrosine, 4:1 (pEY), by luciferase/luciferin-mediated chemiluminescence or; 2) incorporation of radioactive phosphate derived from ^33P-ATP into a generic substrate which has been adsorbed onto the well surface of polystyrene microtiter plates. Phosphorylated substrate products are quantified by scintillation spectrometry.
as §1

Fyn = Fyn (Homo sapiens, UniProt P06241); assay: Kinase assay, Fyn; format: biochemical
Fyn, sequence (P06241 whole entry, species assumed): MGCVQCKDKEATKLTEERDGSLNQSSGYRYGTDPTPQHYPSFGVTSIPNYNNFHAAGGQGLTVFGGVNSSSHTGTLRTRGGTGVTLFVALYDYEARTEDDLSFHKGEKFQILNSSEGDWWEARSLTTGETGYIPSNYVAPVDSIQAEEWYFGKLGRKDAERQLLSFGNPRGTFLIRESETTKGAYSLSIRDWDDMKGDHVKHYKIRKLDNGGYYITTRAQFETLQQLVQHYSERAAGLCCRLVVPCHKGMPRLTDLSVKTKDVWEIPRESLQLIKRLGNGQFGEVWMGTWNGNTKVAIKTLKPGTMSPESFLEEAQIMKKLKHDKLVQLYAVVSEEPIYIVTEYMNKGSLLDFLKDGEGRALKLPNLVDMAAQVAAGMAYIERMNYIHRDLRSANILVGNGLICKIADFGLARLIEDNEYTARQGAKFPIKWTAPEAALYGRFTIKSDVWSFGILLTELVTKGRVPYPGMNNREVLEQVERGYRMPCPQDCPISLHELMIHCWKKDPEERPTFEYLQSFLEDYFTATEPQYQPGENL
Protocol: as §1

EphA2 = EphA2 (Homo sapiens, UniProt P29317); assay: Kinase assay, EphA2 (33P-ATP incorporation or luciferase-coupled ATP consumption); format: biochemical
EphA2, sequence (P29317 24-976, species assumed): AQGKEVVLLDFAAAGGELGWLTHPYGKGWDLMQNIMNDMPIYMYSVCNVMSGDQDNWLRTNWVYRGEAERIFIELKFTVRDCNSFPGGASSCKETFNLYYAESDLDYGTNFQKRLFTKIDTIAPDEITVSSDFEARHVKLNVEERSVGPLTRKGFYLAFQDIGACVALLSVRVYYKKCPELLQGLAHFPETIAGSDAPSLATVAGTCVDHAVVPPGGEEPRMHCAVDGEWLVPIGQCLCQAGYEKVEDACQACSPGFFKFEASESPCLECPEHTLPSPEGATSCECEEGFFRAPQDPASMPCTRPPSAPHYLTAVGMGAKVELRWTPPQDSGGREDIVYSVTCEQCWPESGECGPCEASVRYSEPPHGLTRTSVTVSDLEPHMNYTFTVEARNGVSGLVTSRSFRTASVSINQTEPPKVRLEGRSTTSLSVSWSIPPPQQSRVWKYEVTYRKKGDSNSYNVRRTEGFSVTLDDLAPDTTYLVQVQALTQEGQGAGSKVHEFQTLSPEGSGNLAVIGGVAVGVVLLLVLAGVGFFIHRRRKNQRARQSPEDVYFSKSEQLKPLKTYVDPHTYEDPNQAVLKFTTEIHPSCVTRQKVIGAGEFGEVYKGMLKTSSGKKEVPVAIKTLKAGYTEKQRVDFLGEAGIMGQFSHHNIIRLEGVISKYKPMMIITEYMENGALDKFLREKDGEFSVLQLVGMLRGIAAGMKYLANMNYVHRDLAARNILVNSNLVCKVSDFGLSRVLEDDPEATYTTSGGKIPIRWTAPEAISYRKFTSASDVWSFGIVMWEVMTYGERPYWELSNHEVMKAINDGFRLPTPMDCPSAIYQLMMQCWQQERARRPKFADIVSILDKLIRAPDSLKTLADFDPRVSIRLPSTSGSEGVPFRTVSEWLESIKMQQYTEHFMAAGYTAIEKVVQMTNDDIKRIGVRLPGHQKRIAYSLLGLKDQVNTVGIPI
Protocol: as §2, §3, §1

FGFR1 = FGFR1 (Homo sapiens, UniProt P11362); assay: Kinase assay, FGFR1 (33P-ATP incorporation or luciferase-coupled ATP consumption); format: biochemical
FGFR1, sequence (P11362 22-822, species assumed): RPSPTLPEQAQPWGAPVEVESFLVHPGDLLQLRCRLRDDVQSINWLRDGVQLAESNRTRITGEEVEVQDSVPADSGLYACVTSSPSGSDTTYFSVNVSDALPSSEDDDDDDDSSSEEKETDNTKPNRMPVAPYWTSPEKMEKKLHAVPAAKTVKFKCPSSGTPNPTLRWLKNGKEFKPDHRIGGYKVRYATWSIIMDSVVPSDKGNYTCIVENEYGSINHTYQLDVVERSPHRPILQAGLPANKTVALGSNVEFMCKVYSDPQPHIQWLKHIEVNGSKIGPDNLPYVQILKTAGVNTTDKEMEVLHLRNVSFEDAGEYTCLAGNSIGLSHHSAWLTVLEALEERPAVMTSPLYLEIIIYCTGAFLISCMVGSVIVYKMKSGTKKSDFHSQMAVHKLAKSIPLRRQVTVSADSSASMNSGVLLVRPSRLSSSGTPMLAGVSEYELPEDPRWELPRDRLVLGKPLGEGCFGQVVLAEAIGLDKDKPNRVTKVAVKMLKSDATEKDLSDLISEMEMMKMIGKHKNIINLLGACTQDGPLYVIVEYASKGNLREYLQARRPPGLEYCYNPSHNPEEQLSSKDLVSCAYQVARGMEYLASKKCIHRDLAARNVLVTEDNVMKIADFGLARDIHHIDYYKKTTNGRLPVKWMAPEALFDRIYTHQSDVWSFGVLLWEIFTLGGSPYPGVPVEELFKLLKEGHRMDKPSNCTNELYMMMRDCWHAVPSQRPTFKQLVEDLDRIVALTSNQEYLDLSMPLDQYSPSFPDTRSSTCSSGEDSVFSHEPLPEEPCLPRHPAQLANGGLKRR
Protocol: as §2, §3, §1

[1] = molecular target: T1, KDR (baculovirus expressed human KDR kinase domain D807-V1356) (Homo sapiens, UniProt P35968); assay: biochemical
T1 construct: human KDR kinase domain D807-V1356; host or cells: baculovirus expression system
Protocol: as §1
KDR biochemical activity was assessed using a Luciferase-Coupled Chemiluminescent Kinase assay (LCCA) format. Kinase activity was measured as the percent ATP remaining following the kinase reaction. Remaining ATP was detected by luciferase-luciferin-coupled chemiluminescence. […] The mixture is incubated at ambient temperature for 4 hours after which 20 uL luciferase-luciferin mix is added and the chemiluminescent signal read using a Wallac Victor^2 reader.

PDGFR alpha = PDGFR alpha (Homo sapiens, UniProt P16234); assay: Kinase assay, PDGFR alpha (33P-ATP incorporation or luciferase-coupled ATP consumption); format: biochemical; details: read-out: PDGF-R-A IC50
Protocol: as §2, §3, §1

IRK, sequence (P06213 28-1382): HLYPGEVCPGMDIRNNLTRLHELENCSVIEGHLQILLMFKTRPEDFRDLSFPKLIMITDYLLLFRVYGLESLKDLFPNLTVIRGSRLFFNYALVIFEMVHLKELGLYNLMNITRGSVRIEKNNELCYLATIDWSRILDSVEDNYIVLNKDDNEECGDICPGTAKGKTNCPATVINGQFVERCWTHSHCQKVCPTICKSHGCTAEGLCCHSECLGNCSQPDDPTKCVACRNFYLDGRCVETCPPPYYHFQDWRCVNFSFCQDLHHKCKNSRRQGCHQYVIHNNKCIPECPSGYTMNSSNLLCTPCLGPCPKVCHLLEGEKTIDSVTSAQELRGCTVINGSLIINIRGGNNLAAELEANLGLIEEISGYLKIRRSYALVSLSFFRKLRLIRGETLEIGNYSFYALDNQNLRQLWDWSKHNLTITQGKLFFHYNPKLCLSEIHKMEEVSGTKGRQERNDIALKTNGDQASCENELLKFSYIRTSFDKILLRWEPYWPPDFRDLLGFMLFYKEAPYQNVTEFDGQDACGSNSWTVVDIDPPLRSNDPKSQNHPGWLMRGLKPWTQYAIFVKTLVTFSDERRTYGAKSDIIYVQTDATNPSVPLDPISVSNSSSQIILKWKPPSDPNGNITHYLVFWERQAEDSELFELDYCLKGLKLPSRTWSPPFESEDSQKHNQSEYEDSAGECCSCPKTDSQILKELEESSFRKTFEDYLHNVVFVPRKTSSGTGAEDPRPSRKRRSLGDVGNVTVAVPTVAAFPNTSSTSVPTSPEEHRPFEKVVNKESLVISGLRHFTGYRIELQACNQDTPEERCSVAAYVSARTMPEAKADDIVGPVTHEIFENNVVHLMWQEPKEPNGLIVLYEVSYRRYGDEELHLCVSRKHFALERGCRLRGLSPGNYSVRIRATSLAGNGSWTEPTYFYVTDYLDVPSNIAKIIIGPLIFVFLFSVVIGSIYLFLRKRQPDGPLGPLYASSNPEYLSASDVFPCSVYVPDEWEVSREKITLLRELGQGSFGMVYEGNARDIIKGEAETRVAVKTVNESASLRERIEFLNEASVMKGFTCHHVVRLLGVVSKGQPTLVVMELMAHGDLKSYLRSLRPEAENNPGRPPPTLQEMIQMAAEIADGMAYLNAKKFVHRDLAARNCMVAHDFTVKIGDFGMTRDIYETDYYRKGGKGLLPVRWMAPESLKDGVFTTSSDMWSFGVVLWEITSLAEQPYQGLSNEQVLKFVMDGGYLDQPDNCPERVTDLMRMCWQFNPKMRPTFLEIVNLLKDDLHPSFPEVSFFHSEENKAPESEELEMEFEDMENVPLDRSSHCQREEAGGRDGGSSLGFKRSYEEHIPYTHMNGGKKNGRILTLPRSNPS

Structure (SMILES): COCCN1CCC(Nc2ccc3c(c2)/C(=C(\c2cc(F)cc(F)c2)c2nc(C)c[nH]2)C(=O)N3)CC1 [Entry 76]
IC50 (IRK): 0.5 to 5 µM | IC50 (EGFR): 0.05 to 0.5 µM | IC50 (Fyn): < 0.05 µM | IC50 (EphA2): 0.5 to 5 µM | IC50 (FGFR1): < 0.05 µM | IC50 [1]: < 0.05 µM | IC50 (PDGFR alpha): < 0.05 µM

Structure (SMILES): O=C1Nc2ccc(NC3CCNCC3)cc2/C1=C(\c1cccc(F)c1)c1ncc[nH]1 [Entry 81, (3Z)-3-[(3-fluorophenyl)(1H-imidazol-2-yl)methylidene]-5-(piperidin-4-ylamino)-1,3-dihydro-2H-indol-2-one]
IC50 (IRK): 0.5 to 5 µM | IC50 (EGFR): > 5 µM | IC50 (Fyn): < 0.05 µM | IC50 (EphA2): 0.05 to 0.5 µM | IC50 (FGFR1): < 0.05 µM | IC50 [1]: < 0.05 µM | IC50 (PDGFR alpha): < 0.05 µM

Structure (SMILES): O=C1Nc2ccc(NC3CCN(CCN4CCCCC4)CC3)cc2/C1=C(\c1cccc(F)c1)c1ncc[nH]1 [Entry 82]
IC50 (IRK): > 5 µM | IC50 (EGFR): > 5 µM | IC50 (Fyn): 0.05 to 0.5 µM | IC50 (EphA2): 0.5 to 5 µM | IC50 (FGFR1): 0.05 to 0.5 µM | IC50 [1]: 0.05 to 0.5 µM | IC50 (PDGFR alpha): 0.05 to 0.5 µM

Structure (SMILES): O=C1Nc2ccc(NC3CCN(CCN4CCOCC4)CC3)cc2/C1=C(\c1cccc(F)c1)c1ncc[nH]1 [Entry 83]
IC50 (IRK): > 5 µM | IC50 (EGFR): > 5 µM | IC50 (Fyn): 0.05 to 0.5 µM | IC50 (EphA2): 0.5 to 5 µM | IC50 (FGFR1): < 0.05 µM | IC50 [1]: < 0.05 µM | IC50 (PDGFR alpha): < 0.05 µM

Structure (SMILES): CCN(CC)CCN1CCC(Nc2ccc3c(c2)/C(=C(\c2cccc(F)c2)c2ncc[nH]2)C(=O)N3)CC1 [Entry 84, (3Z)-5-({1-[2-(diethylamino)ethyl]piperidin-4-yl}amino)-3-[(3-fluorophenyl)(1H-imidazol-2-yl)methylidene]-1,3-dihydro-2H-indol-2-one]
IC50 (IRK): > 5 µM | IC50 (EGFR): > 5 µM | IC50 (Fyn): 0.05 to 0.5 µM | IC50 (EphA2): 0.5 to 5 µM | IC50 (FGFR1): 0.05 to 0.5 µM | IC50 [1]: 0.05 to 0.5 µM | IC50 (PDGFR alpha): 0.05 to 0.5 µM

Next, values leading:

IC50 (IRK): > 5 µM | IC50 (EGFR): > 5 µM | IC50 (Fyn): 0.05 to 0.5 µM | IC50 (EphA2): 0.5 to 5 µM | IC50 (FGFR1): < 0.05 µM | IC50 [1]: < 0.05 µM | IC50 (PDGFR alpha): < 0.05 µM
Structure (SMILES): COCCN1CCC(Nc2ccc3c(c2)/C(=C(\c2ccccc2)c2nc4cc(Cl)ccc4[nH]2)C(=O)N3)CC1 [Entry 72]

IC50 (IRK): > 5 µM | IC50 (EGFR): 0.05 to 0.5 µM | IC50 (Fyn): < 0.05 µM | IC50 (EphA2): 0.5 to 5 µM | IC50 (FGFR1): < 0.05 µM | IC50 [1]: < 0.05 µM | IC50 (PDGFR alpha): < 0.05 µM
Structure (SMILES): COCCN1CCC(Nc2ccc3c(c2)/C(=C(\c2cc(F)cc(F)c2)c2ncc[nH]2)C(=O)N3)CC1 [Entry 75, (3Z)-3-[(3,5-difluorophenyl)(1H-imidazol-2-yl)methylidene]-5-({1-[2-(methyloxy)ethyl]piperidin-4-yl}amino)-1,3-dihydro-2H-indol-2-one]

IC50 (IRK): 0.5 to 5 µM | IC50 (EGFR): 0.05 to 0.5 µM | IC50 (Fyn): < 0.05 µM | IC50 (EphA2): 0.05 to 0.5 µM | IC50 (FGFR1): < 0.05 µM | IC50 [1]: < 0.05 µM | IC50 (PDGFR alpha): < 0.05 µM
Structure (SMILES): COCCN1CCC(Nc2ccc3c(c2)/C(=C(\c2ccc(C)cc2)c2nc(C)c[nH]2)C(=O)N3)CC1 [Entry 77, (3Z)-3-[(4-methyl-1H-imidazol-2-yl)(4-methylphenyl)methylidene]-5-({1-[2-(methyloxy)ethyl]piperidin-4-yl}amino)-1,3-dihydro-2H-indol-2-one]

IC50 (IRK): > 5 µM | IC50 (EGFR): > 5 µM | IC50 (Fyn): 0.05 to 0.5 µM | IC50 (EphA2): 0.5 to 5 µM | IC50 (FGFR1): 0.05 to 0.5 µM | IC50 [1]: < 0.05 µM | IC50 (PDGFR alpha): < 0.05 µM
Structure (SMILES): COCCN1CCC(Nc2ccc3c(c2)/C(=C(\c2ccc(F)cc2)c2ncc[nH]2)C(=O)N3)CC1 [Entry 78]

IC50 (IRK): > 5 µM | IC50 (EGFR): > 5 µM | IC50 (Fyn): 0.05 to 0.5 µM | IC50 (EphA2): 0.5 to 5 µM | IC50 (FGFR1): 0.05 to 0.5 µM | IC50 [1]: < 0.05 µM | IC50 (PDGFR alpha): < 0.05 µM
Structure (SMILES): COCCN1CCC(Nc2ccc3c(c2)/C(=C(\c2ccc(F)c(F)c2)c2ncc[nH]2)C(=O)N3)CC1 [Entry 79]

IC50 (IRK): > 5 µM | IC50 (EGFR): > 5 µM | IC50 (Fyn): 0.05 to 0.5 µM | IC50 (EphA2): 0.5 to 5 µM | IC50 (FGFR1): 0.05 to 0.5 µM | IC50 [1]: < 0.05 µM | IC50 (PDGFR alpha): 0.05 to 0.5 µM
Structure (SMILES): COCCN1CCC(Nc2ccc3c(c2)/C(=C(\c2ccc(F)c(Cl)c2)c2ncc[nH]2)C(=O)N3)CC1 [Entry 80]
